From PubChem BioAssay AID1963835 (Molecular Pharmacology Branch, DTP, NCI, 2024)
pIC50: −log10 of the molar value.

System: 699152-130-R-J1-PDC complex spheroid viability
Assay: Anticancer human tumor 699152-130-R-J1-PDC patient-derived pancreatic carcinoma cell line growth inhibition [POLQ]
Details: for pIC50: curve of first compound; for viability, T/C: stronger effect = lower value
In short: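 PDC + HUVEC + MSC complex spheroids; POLQ inhibitors ± partner drugs; top conc. at/near clinical Cmax, else 10 microM (SN-38 1 microM), half-log dilutions; 37 degrees C, 5% CO2.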

[1] = second compound 0.0316 µM, first compound 0.0316 µM
[2] = second compound 0.0316 µM, first compound 0.1 µM
[3] = second compound 0.0316 µM, first compound 0.316 µM
[4] = second compound 0.0316 µM, first compound 1 µM
[5] = second compound 0.0316 µM, first compound 3.16 µM
[6] = second compound 0.0316 µM, first compound 10 µM
[7] = second compound 0.1 µM, first compound 0.0316 µM
[8] = second compound 0.1 µM, first compound 0.1 µM
[9] = second compound 0.1 µM, first compound 0.316 µM
[10] = second compound 0.1 µM, first compound 1 µM
[11] = second compound 0.1 µM, first compound 3.16 µM
[12] = second compound 0.1 µM, first compound 10 µM
[13] = second compound 0.316 µM, first compound 0.0316 µM
[14] = second compound 0.316 µM, first compound 0.1 µM
[15] = second compound 0.316 µM, first compound 0.316 µM
[16] = second compound 0.316 µM, first compound 1 µM
[17] = second compound 0.316 µM, first compound 3.16 µM
[18] = second compound 0.316 µM, first compound 10 µM
[19] = second compound 1 µM, first compound 0.0316 µM
[20] = second compound 1 µM, first compound 0.1 µM
[21] = second compound 1 µM, first compound 0.316 µM
[22] = second compound 1 µM, first compound 1 µM
[23] = second compound 1 µM, first compound 3.16 µM
[24] = second compound 1 µM, first compound 10 µM
[25] = second compound 3.16 µM, first compound 0.0316 µM
[26] = second compound 3.16 µM, first compound 0.1 µM
[27] = second compound 3.16 µM, first compound 0.316 µM
[28] = second compound 3.16 µM, first compound 1 µM
[29] = second compound 3.16 µM, first compound 3.16 µM
[30] = second compound 3.16 µM, first compound 10 µM
[31] = second compound 10 µM, first compound 0.0316 µM
[32] = second compound 10 µM, first compound 0.1 µM
[33] = second compound 10 µM, first compound 0.316 µM
[34] = second compound 10 µM, first compound 1 µM
[35] = second compound 10 µM, first compound 3.16 µM
[36] = second compound 10 µM, first compound 10 µM
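Further: spheroids exposed to agents for 7 days before viability reading.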
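Wherever viability, T/C is given: percent of DMSO vehicle control viability so 100% = vehicle and 0% = no viable signal.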

Question: `CNCc1ccc(-c2[nH]c3cc(F)cc4c3c2CCNC4=O)cc1` + Cc1cccc(N(C)C(=O)C2C(O)CCN2c2nc(C)cc(C(F)(F)F)c2C#N)c1 was tested. Which pIC50 (second compound 0.0316 µM) did it give?
Answer: < 5.00

Question: What about the pIC50 (second compound 0.1 µM) of the same molecule?
Answer: < 5.00

Question: And the pIC50 (second compound 0.316 µM)?
Answer: < 5.00

Question: What about the pIC50 (second compound 1 µM) of the same molecule?
Answer: < 5.00

Question: What about the pIC50 (second compound 3.16 µM) of the same molecule?
Answer: < 5.00

Question: And the pIC50 (second compound 10 µM)?
Answer: < 5.00

Question: And the viability, T/C [1]?
Answer: 95.5%

Question: And the viability, T/C [2]?
Answer: 88.8%

Question: And the viability, T/C [3]?
Answer: 101%

Question: And the viability, T/C [4]?
Answer: 95.3%

Question: And the viability, T/C [5]?
Answer: 113%

Question: And the viability, T/C [6]?
Answer: 126%

Question: What about the viability, T/C [7] of the same molecule?
Answer: 88.8%

Question: What about the viability, T/C [8] of the same molecule?
Answer: 106%

Question: What about the viability, T/C [9] of the same molecule?
Answer: 92.2%

Question: What about the viability, T/C [10] of the same molecule?
Answer: 103%

Question: What about the viability, T/C [11] of the same molecule?
Answer: 105%

Question: And the viability, T/C [12]?
Answer: 119%

Question: And the viability, T/C [13]?
Answer: 95.5%

Question: What about the viability, T/C [14] of the same molecule?
Answer: 94.2%

Question: What about the viability, T/C [15] of the same molecule?
Answer: 96.6%

Question: And the viability, T/C [16]?
Answer: 111%

Question: What about the viability, T/C [17] of the same molecule?
Answer: 123%

Question: And the viability, T/C [18]?
Answer: 114%

Question: What about the viability, T/C [19] of the same molecule?
Answer: 92.7%

Question: And the viability, T/C [20]?
Answer: 86.9%

Question: What about the viability, T/C [21] of the same molecule?
Answer: 88.9%

Question: What about the viability, T/C [22] of the same molecule?
Answer: 94.8%

Question: And the viability, T/C [23]?
Answer: 99.4%

Question: And the viability, T/C [24]?
Answer: 127%

Question: What about the viability, T/C [25] of the same molecule?
Answer: 101%

Question: And the viability, T/C [26]?
Answer: 87.7%

Question: What about the viability, T/C [27] of the same molecule?
Answer: 96.6%

Question: What about the viability, T/C [28] of the same molecule?
Answer: 98.1%

Question: What about the viability, T/C [29] of the same molecule?
Answer: 115%

Question: What about the viability, T/C [30] of the same molecule?
Answer: 122%

Question: And the viability, T/C [31]?
Answer: 99.2%

Question: And the viability, T/C [32]?
Answer: 101%

Question: And the viability, T/C [33]?
Answer: 105%

Question: What about the viability, T/C [34] of the same molecule?
Answer: 97.9%

Question: And the viability, T/C [35]?
Answer: 109%

Question: And the viability, T/C [36]?
Answer: 116%

Question: Which results are given for `CCc1cc2c(N3CCc4c(cc(Cn5ccnc5)cc4-c4cn(C)nc4C(F)(F)F)C3=O)cc(C)nc2c(OC)n1` + Nc1ccc(C#CCN(C(=O)Cc2ncc(C(F)(F)F)cc2C(F)(F)F)c2ccc(F)cc2)nn1?
Answer: pIC50 (second compound 0.0316 µM): < 5.00; pIC50 (second compound 0.1 µM): < 5.00; pIC50 (second compound 0.316 µM): < 5.00; pIC50 (second compound 1 µM): < 5.00; pIC50 (second compound 3.16 µM): < 5.00; pIC50 (second compound 10 µM): < 5.00; viability, T/C [1]: 85.8%; viability, T/C [2]: 89.8%; viability, T/C [3]: 97.3%; viability, T/C [4]: 101%; viability, T/C [5]: 99.4%; viability, T/C [6]: 106%; viability, T/C [7]: 87.7%; viability, T/C [8]: 88.8%; viability, T/C [9]: 96.9%; viability, T/C [10]: 93.4%; viability, T/C [11]: 100%; viability, T/C [12]: 107%; viability, T/C [13]: 89.5%; viability, T/C [14]: 94.2%; viability, T/C [15]: 101%; viability, T/C [16]: 89.7%; viability, T/C [17]: 97%; viability, T/C [18]: 101%; viability, T/C [19]: 86.5%; viability, T/C [20]: 93.6%; viability, T/C [21]: 95.6%; viability, T/C [22]: 95.5%; viability, T/C [23]: 100%; viability, T/C [24]: 104%; viability, T/C [25]: 105%; viability, T/C [26]: 95.7%; viability, T/C [27]: 102%; viability, T/C [28]: 106%; viability, T/C [29]: 107%; viability, T/C [30]: 106%; viability, T/C [31]: 99.8%; viability, T/C [32]: 118%; viability, T/C [33]: 110%; viability, T/C [34]: 107%; viability, T/C [35]: 117%; viability, T/C [36]: 115%

Question: How did the pIC50 (second compound 0.0316 µM) turn out when `C=CC(=O)N1CCN(c2nc(=O)n(-c3c(C)ccnc3C(C)C)c3nc(-c4c(O)cccc4F)c(F)cc23)C(C)C1` (stereo unspecified) + Nc1ccc(C#CCN(C(=O)Cc2ncc(C(F)(F)F)cc2C(F)(F)F)c2ccc(F)cc2)nn1 was run?
Answer: < 5.00

Question: What about the pIC50 (second compound 0.1 µM) of the same molecule?
Answer: < 5.00

Question: And the pIC50 (second compound 0.316 µM)?
Answer: < 5.00

Question: And the pIC50 (second compound 1 µM)?
Answer: < 5.00

Question: What about the pIC50 (second compound 3.16 µM) of the same molecule?
Answer: < 5.00

Question: And the pIC50 (second compound 10 µM)?
Answer: < 5.00

Question: And the viability, T/C [1]?
Answer: 99%

Question: What about the viability, T/C [2] of the same molecule?
Answer: 91.6%

Question: And the viability, T/C [3]?
Answer: 102%

Question: And the viability, T/C [4]?
Answer: 117%

Question: And the viability, T/C [5]?
Answer: 115%

Question: What about the viability, T/C [6] of the same molecule?
Answer: 103%

Question: What about the viability, T/C [7] of the same molecule?
Answer: 92.8%

Question: And the viability, T/C [8]?
Answer: 89.6%

Question: And the viability, T/C [9]?
Answer: 106%

Question: And the viability, T/C [10]?
Answer: 116%

Question: And the viability, T/C [11]?
Answer: 123%

Question: And the viability, T/C [12]?
Answer: 113%

Question: What about the viability, T/C [13] of the same molecule?
Answer: 102%

Question: And the viability, T/C [14]?
Answer: 106%

Question: And the viability, T/C [15]?
Answer: 98.8%

Question: What about the viability, T/C [16] of the same molecule?
Answer: 118%

Question: And the viability, T/C [17]?
Answer: 119%

Question: What about the viability, T/C [18] of the same molecule?
Answer: 97.4%

Question: And the viability, T/C [19]?
Answer: 104%

Question: And the viability, T/C [20]?
Answer: 105%

Question: What about the viability, T/C [21] of the same molecule?
Answer: 103%

Question: What about the viability, T/C [22] of the same molecule?
Answer: 111%

Question: What about the viability, T/C [23] of the same molecule?
Answer: 124%

Question: And the viability, T/C [24]?
Answer: 117%

Question: And the viability, T/C [25]?
Answer: 103%

Question: What about the viability, T/C [26] of the same molecule?
Answer: 125%

Question: And the viability, T/C [27]?
Answer: 102%

Question: And the viability, T/C [28]?
Answer: 119%

Question: What about the viability, T/C [29] of the same molecule?
Answer: 114%

Question: And the viability, T/C [30]?
Answer: 95.9%

Question: What about the viability, T/C [31] of the same molecule?
Answer: 110%

Question: And the viability, T/C [32]?
Answer: 110%

Question: What about the viability, T/C [33] of the same molecule?
Answer: 122%

Question: And the viability, T/C [34]?
Answer: 109%

Question: What about the viability, T/C [35] of the same molecule?
Answer: 125%

Question: And the viability, T/C [36]?
Answer: 121%
